The text below walks through data of patent publication US20260091026A1, “METHODS OF TREATING INFLAMMATORY DISEASES” (INTERLINE THERAPEUTICS, INC., priority 2023, published 2026).

Each structure is given as a SMILES string.

The term IC50 denotes the midpoint of a concentration-inhibition curve.

For experiment [1], the system named is THP1-Dual cells, NF-κB pathway (SEAP). Description: THP-1 Dual cell SEAP assay (L18-MDP stimulated). The experiment is classed as cell-based. As to conditions: Homo sapiens, 10 ng/mL L18-MDP, 20-24 h, SEAP readout, read-out: IFNγ THP1 IC50. In short, it runs like this: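 About 25,000 THP1-Dual cells per well were preincubated 30 min with serially diluted compound, then stimulated overnight (20-24 h, 37 °C) with 10 ng/mL L18-MDP (final). NF-κB-driven SEAP in supernatant was read with QUANTI-Blue at OD 620-655 nm after 2 h; % inhibition versus DMSO/L18-MDP wells was fitted by non-linear regression to give IC50.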

Another experiment concerns the target T1, RIPK2 (KD)/XIAP (BIR2) (Homo sapiens, UniProt O43353).
T1 construct: made in house; host or cells: baculovirus-infected Sf9 cells
As to the kind of experiment: RIPK2-XIAP binding competition PPI assay (TR-FRET). As to conditions: for Emax: 50 nM of GSK583 = -100% activity, read-out: PPI Amax; for IC50: GST-RIPK2 / His-XIAP (BIR2)-avi, 120 min at 23° C. In a few lines: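 TR-FRET competition between GST-RIPK2 (aa 1-310, 1 nM) and His-XIAP BIR2-avi (aa 152-231, 25 nM), both Sf9-expressed, detected with anti-His-XL665 and anti-GST-Tb in Tris pH 7.5 buffer with MgCl2, DTT and vanadate. Incubation was 120 min at 23 °C; the 665/520 nm ratio was normalized to no inhibitor (0%) and 50 nM GSK583 (−100%).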
A general note: In TR-FRET formats the signal depends on donor and acceptor labels being close together.

T1 sequence (O43353 1-310): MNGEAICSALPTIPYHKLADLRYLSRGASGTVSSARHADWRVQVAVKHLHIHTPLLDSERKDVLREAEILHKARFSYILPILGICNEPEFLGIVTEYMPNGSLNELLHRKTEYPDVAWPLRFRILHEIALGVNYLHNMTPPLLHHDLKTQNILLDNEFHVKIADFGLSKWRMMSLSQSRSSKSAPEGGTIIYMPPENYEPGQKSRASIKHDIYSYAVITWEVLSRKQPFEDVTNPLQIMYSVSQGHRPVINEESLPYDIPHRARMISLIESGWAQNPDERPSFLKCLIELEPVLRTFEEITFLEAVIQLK

As to `COc1cc2ncc(-c3cc(C(=O)NCc4cn5ccccc5n4)n(C)n3)n2cc1S(=O)(=O)C(C)(C)C` [Example 22, 3-(6-(tert-butylsulfonyl)-7-methoxyimidazo[1,2-a]pyridin-3-yl)-N-(imidazo[1,2-a]pyridin-2-ylmethyl)-1-methyl-1H-pyrazole-5-carboxamide], in experiment [1], the concentration for half-maximal inhibition (IC50) is > 2500 nM. Also, at RIPK2 (KD)/XIAP (BIR2), the Emax was ≤ 30% and the IC50 was > 1000 nM.

As to `COc1cc2ncc(-c3cc(C(=O)N[C@H]4CCc5cccnc54)n(C)n3)n2cc1S(=O)(=O)C(C)(C)C` [Example 64, (S)-3-(6-(tert-butylsulfonyl)-7-methoxyimidazo[1,2-a]pyridin-3-yl)-N-(6,7-dihydro-5H-cyclopenta[b]pyridin-7-yl)-1-methyl-1H-pyrazole-5-carboxamide], the IC50 fell in the range of 500 to 2500 nM in experiment [1] and 10 to 100 nM at RIPK2 (KD)/XIAP (BIR2). Moreover, on RIPK2 (KD)/XIAP (BIR2), the Emax is ≥ 80%.

As to `COc1cc2ncc(-c3cc(C(=O)N[C@H](C)c4ccn(C)n4)n(C)n3)n2cc1S(=O)(=O)C(C)(C)C` [Example 59, (R)-3-(6-(tert-butylsulfonyl)-7-methoxyimidazo[1,2-a]pyridin-3-yl)-1-methyl-N-(1-(1-methyl-1H-pyrazol-3-yl)ethyl)-1H-pyrazole-5-carboxamide], the IC50 in experiment [1] lay in the range of 500 to 2500 nM. Further, on RIPK2 (KD)/XIAP (BIR2), the Emax is ≥ 80% and the IC50 is 100 to 1000 nM.

Regarding `COc1cc2ncc(-c3cc(C(=O)N[C@H](C)c4ccccn4)n(C(C)C)n3)n2cc1S(=O)(=O)C(C)(C)C` [Example 101, (R)-3-(6-(tert-butylsulfonyl)-7-methoxyimidazo[1,2-a]pyridin-3-yl)-1-isopropyl-N-(1-(pyridin-2-yl)ethyl)-1H-pyrazole-5-carboxamide], in experiment [1], the IC50 was < 100 nM. In addition, at RIPK2 (KD)/XIAP (BIR2), the Emax is ≥ 80% and the IC50 was < 10 nM.

For the molecule `COc1cc2ncc(-c3cc(C(=O)NCc4ncn(C)n4)n(C)n3)n2cc1S(=O)(=O)C(C)(C)C` [Example 81, 3-(6-(tert-butylsulfonyl)-7-methoxyimidazo[1,2-a]pyridin-3-yl)-1-methyl-N-((1-methyl-1H-1,2,4-triazol-3-yl)methyl)-1H-pyrazole-5-carboxamide], the IC50 in experiment [1] is > 2500 nM. Moreover, at RIPK2 (KD)/XIAP (BIR2), the Emax is ≥ 80% and the IC50 was 100 to 1000 nM.

For `COc1cc2ncc(-c3cc(C(=O)N[C@H](C)c4ccccn4)n(C)n3)n2cc1S(=O)(=O)C(C)(C)C` [Example 42, (R)-3-(6-(tert-butylsulfonyl)-7-methoxyimidazo[1,2-a]pyridin-3-yl)-1-methyl-N-(1-(pyridin-2-yl)ethyl)-1H-pyrazole-5-carboxamide], the figures for the IC50 (in experiment [1]; on RIPK2 (KD)/XIAP (BIR2)) were 100 to 500 nM and 10 to 100 nM, respectively. Also, the Emax on RIPK2 (KD)/XIAP (BIR2) was ≥ 80%.

As for `C[C@@H](NC(=O)c1cc(-c2cnc3cc(OCCO)c(S(=O)(=O)C(C)(C)C)cn23)nn1C)c1nccs1` [Example 94, (R)-3-(6-(tert-butylsulfonyl)-7-(2-hydroxyethoxy)imidazo[1,2-a]pyridin-3-yl)-1-methyl-N-(1-(thiazol-2-yl)ethyl)-1H-pyrazole-5-carboxamide], the IC50 lay in the range of 100 to 500 nM in experiment [1] and 10 to 100 nM on RIPK2 (KD)/XIAP (BIR2). Moreover, on RIPK2 (KD)/XIAP (BIR2), the Emax is ≥ 80%.

Take `COCCn1nc(-c2cnc3cc(OC)c(S(=O)(=O)C(C)(C)C)cn23)cc1C(=O)N[C@H](C)c1ccccn1` [Example 105, (R)-3-(6-(tert-butylsulfonyl)-7-methoxyimidazo[1,2-a]pyridin-3-yl)-1-(2-methoxyethyl)-N-(1-(pyridin-2-yl)ethyl)-1H-pyrazole-5-carboxamide]: the IC50 in experiment [1] was 500 to 2500 nM. Further, on RIPK2 (KD)/XIAP (BIR2), the Emax is ≥ 80% and the IC50 is 10 to 100 nM.

In the case of `COc1cc2ncc(-c3cc(C(=O)NCc4ccnn4C)n(C)n3)n2cc1S(=O)(=O)C(C)(C)C` [Example 70, 3-(6-(tert-butylsulfonyl)-7-methoxyimidazo[1,2-a]pyridin-3-yl)-1-methyl-N-((1-methyl-1H-pyrazol-5-yl)methyl)-1H-pyrazole-5-carboxamide], the 50% inhibitory concentration (IC50) in experiment [1] is > 2500 nM. Further, on RIPK2 (KD)/XIAP (BIR2), the Emax was in the range of 30 to 55% and the IC50 was > 1000 nM.

In the case of `COc1cc2ncc(-c3cc(C(=O)N[C@H](C)c4cccc(F)c4)n(C)n3)n2cc1S(=O)(=O)C(C)(C)C` [Example 13, (R)-3-(6-(tert-butylsulfonyl)-7-methoxyimidazo[1,2-a]pyridin-3-yl)-N-(1-(3-fluorophenyl)ethyl)-1-methyl-1H-pyrazole-5-carboxamide], the IC50 in experiment [1] was > 2500 nM; on RIPK2 (KD)/XIAP (BIR2), 100 to 1000 nM. The Emax on RIPK2 (KD)/XIAP (BIR2) is ≥ 80%.

For the molecule `COc1cc2ncc(-c3cc(C(=O)N[C@@H](c4ccccn4)C(F)(F)F)n(C)n3)n2cc1S(=O)(=O)C(C)(C)C` [Example 62, (S)-3-(6-(tert-butylsulfonyl)-7-methoxyimidazo[1,2-a]pyridin-3-yl)-1-methyl-N-(2,2,2-trifluoro-1-(pyridin-2-yl)ethyl)-1H-pyrazole-5-carboxamide], the IC50 fell in the range of 500 to 2500 nM in experiment [1] and 100 to 1000 nM on RIPK2 (KD)/XIAP (BIR2). Besides, the Emax at RIPK2 (KD)/XIAP (BIR2) was ≥ 80%.

On to `CCn1nc(-c2cnc3cc(OCCO)c(S(=O)(=O)C(C)(C)C)cn23)cc1C(=O)N[C@H](C)c1ccn(C)n1` [Example 122, (R)-3-(6-(tert-butylsulfonyl)-7-(2-hydroxyethoxy)imidazo[1,2-a]pyridin-3-yl)-1-ethyl-N-(1-(1-methyl-1H-pyrazol-3-yl)ethyl)-1H-pyrazole-5-carboxamide], for which the IC50 in experiment [1] is < 100 nM; on RIPK2 (KD)/XIAP (BIR2), 10 to 100 nM. Besides, the Emax on RIPK2 (KD)/XIAP (BIR2) is ≥ 80%.

Consider `COc1cc2ncc(-c3cc(C(=O)NCc4ccccc4C#N)n(C)n3)n2cc1S(=O)(=O)C(C)(C)C` [Example 83, 3-(6-(tert-butylsulfonyl)-7-methoxyimidazo[1,2-a]pyridin-3-yl)-N-(2-cyanobenzyl)-1-methyl-1H-pyrazole-5-carboxamide], for which, in experiment [1], the IC50 is > 2500 nM. For the same molecule, at RIPK2 (KD)/XIAP (BIR2), the Emax is ≥ 80% and the 50% inhibitory concentration (IC50) lay within 100 to 1000 nM.

Regarding `C[C@@H](NC(=O)c1cc(-c2cnc3cc(OCCO)c(S(=O)(=O)C(C)(C)C)cn23)nn1C)c1ccccc1` [Example 32, (R)-3-(6-(tert-butylsulfonyl)-7-(2-hydroxyethoxy)imidazo[1,2-a]pyridin-3-yl)-1-methyl-N-(1-phenylethyl)-1H-pyrazole-5-carboxamide], the IC50 in experiment [1] is < 100 nM; at RIPK2 (KD)/XIAP (BIR2), < 10 nM. Also, the Emax at RIPK2 (KD)/XIAP (BIR2) is ≥ 80%.

As to `C[C@H](NC(=O)c1cc(-c2cnc3cc(OCCO)c(S(=O)(=O)C(C)(C)C)cn23)nn1C)c1ncccc1Cl` [Example 112, (S)-3-(6-(tert-butylsulfonyl)-7-(2-hydroxyethoxy)imidazo[1,2-a]pyridin-3-yl)-N-(1-(3-chloropyridin-2-yl)ethyl)-1-methyl-1H-pyrazole-5-carboxamide], the IC50 in experiment [1] was > 2500 nM; on RIPK2 (KD)/XIAP (BIR2), > 1000 nM. Moreover, the Emax at RIPK2 (KD)/XIAP (BIR2) lay within 55 to 80%.

With `COc1cc2ncc(-c3cc(C(=O)NCc4cnn(C)c4)n(C)n3)n2cc1S(=O)(=O)C(C)(C)C` [Example 25, 3-(6-(tert-butylsulfonyl)-7-methoxyimidazo[1,2-a]pyridin-3-yl)-1-methyl-N-((1-methyl-1H-pyrazol-4-yl)methyl)-1H-pyrazole-5-carboxamide], the IC50 in experiment [1] is > 2500 nM. In addition, on RIPK2 (KD)/XIAP (BIR2), the Emax was ≤ 30% and the IC50 is > 1000 nM.

On to `COc1cc2ncc(-c3cc(C(=O)N[C@H](CO)c4ccccc4)n(C)n3)n2cc1S(=O)(=O)C(C)(C)C` [Example 11, (S)-3-(6-(tert-butylsulfonyl)-7-methoxyimidazo[1,2-a]pyridin-3-yl)-N-(2-hydroxy-1-phenylethyl)-1-methyl-1H-pyrazole-5-carboxamide], for which the half-inhibitory concentration (IC50) in experiment [1] was > 2500 nM; at RIPK2 (KD)/XIAP (BIR2), > 1000 nM. The Emax on RIPK2 (KD)/XIAP (BIR2) was ≤ 30%.

Turning to `COc1cc2ncc(-c3cc(C(=O)NCc4ccsn4)n(C)n3)n2cc1S(=O)(=O)C(C)(C)C` [Example 86, 3-(6-(tert-butylsulfonyl)-7-methoxyimidazo[1,2-a]pyridin-3-yl)-N-(isothiazol-3-ylmethyl)-1-methyl-1H-pyrazole-5-carboxamide], the IC50 in experiment [1] is 100 to 500 nM. For the same molecule, at RIPK2 (KD)/XIAP (BIR2), the Emax is ≥ 80% and the IC50 lay in the range of 10 to 100 nM.

As for `COc1cc2ncc(-c3cc(C(=O)N[C@H](C)c4ncccn4)n(CC(F)(F)CO)n3)n2cc1S(=O)(=O)C(C)(C)C` [Example 107, (R)-3-(6-(tert-butylsulfonyl)-7-methoxyimidazo[1,2-a]pyridin-3-yl)-1-(2,2-difluoro-3-hydroxypropyl)-N-(1-(pyrimidin-2-yl)ethyl)-1H-pyrazole-5-carboxamide], the results for the IC50 (in experiment [1]; at RIPK2 (KD)/XIAP (BIR2)) were 500 to 2500 nM and 10 to 100 nM, respectively. The Emax on RIPK2 (KD)/XIAP (BIR2) is ≥ 80%.

Regarding `COc1cc2ncc(-c3cc(C(=O)N[C@@H](C)C4CC4)n(C)n3)n2cc1S(=O)(=O)C(C)(C)C` [Example 36, (S)-3-(6-(tert-butylsulfonyl)-7-methoxyimidazo[1,2-a]pyridin-3-yl)-N-(1-cyclopropylethyl)-1-methyl-1H-pyrazole-5-carboxamide], the IC50 in experiment [1] is > 2500 nM. Further, at RIPK2 (KD)/XIAP (BIR2), the Emax lay in the range of 30 to 55% and the IC50 was > 1000 nM.

`COc1cc2ncc(-c3cc(C(=O)N[C@@H](C)c4ncccc4F)n(C)n3)n2cc1S(=O)(=O)C(C)(C)C` [Example 51, (S)-3-(6-(tert-butylsulfonyl)-7-methoxyimidazo[1,2-a]pyridin-3-yl)-N-(1-(3-fluoropyridin-2-yl)ethyl)-1-methyl-1H-pyrazole-5-carboxamide]: in experiment [1], the IC50 was > 2500 nM. Moreover, on RIPK2 (KD)/XIAP (BIR2), the Emax was in the range of 55 to 80% and the IC50 is > 1000 nM.
